The values below come from patent US20160208339A1, “BIOMARKERS CORRELATED TO PARP INHIBITOR TREATMENT SUCCESS IN AML PATIENTS” (KING'S COLLEGE LONDON, priority 2013, published 2016).

Series [1] has as its system E2A-PBX transformed cells. As to the kind of experiment: Clonogenic assay in methylcellulose, RTTA-transformed primary leukaemic cells. The class given is cell-based, mouse. Particulars: 1 μM, methylcellulose 7 days. The method, then: (§1) FIG. 2 AML1-ETO and PML-RARα leukemic cells are sensitive to PARPi. A) Representative scheme of experimental procedures. B) Non linear regression dose response curve. Normal bone marrow c-kit cells and pre-leukaemic cells expressing the oncofusion proteins AML1-ETO, E2A-PBX, MLL-AF9 and PML-RARα were grown in methylcellulose for 7 days with escalating doses of PARPi. Data representative of three independent experiments are shown. C) Percentage of survival of preleukemic cells to PARPi. The number of colonies surviving to seven days incubation with PARPi treatment was normalized against the untreated control. Data representative of six independent experiments are shown ±SD. […] D) Colony morphology (phase contrast microscopy, magnification 40×). Representative pictures are shown. E) Efficiency of PARP1 Knock down (KD) in NIH3T3 cells infected with retroviral vectors expressing shRNA against mouse PARP1. qPCR data showing expression of PARP1 mRNA in NIH3T3 after infection with sh-mPARP1. Data representative of two independent experiments are shown ±SD. Paired two-tailed t test was performed between empty vector and i) scramble, ii) sh-PARP1-A and iii) sh-PARP1-D*p<0.05. F) Efficiency of PARP1 by Western Blot. Western Blot data showing protein level of PARP1 in NIH3T3 after infection with sh-mPARP1. G) Efficiency of PARP1 KD in leukemic cells infected with retroviral vectors expressing shRNA against mouse PARP1. qPCR data showing expression of PARP1 mRNA in leukemic cells after infection with sh-mPARP1. Data representative of three independent experiments are shown ±SD. 2-way Anova test was performed between empty vector and i) scramble, ii) sh-PARP1-A and iii) sh-PARP1-D*p<0.05, **p<0.01, ***p<0.001. H) Relative number of colonies arisen from leukemic cells transformed by indicated oncoproteins after shPARP1-mediated KD. Bone marrow cells were co-transduced with retroviral vectors carrying the oncogene of interest and empty vector or sh-scramble or shPARP1. The number of colonies was normalized against the empty vector control. Data representative of three independent experiments are shown ±SD. 2-way Anova test was performed between empty vector and i) scramble, ii) sh-PARP1-A and iii) sh-PARP1-D*p<0.05, **p<0.01, ***p<0.001. I) Colony morphology from phase contrast microscopy (magnification 40×). Representative pictures are shown. […] The number of colonies after PARPi treatment was normalized against the untreated control. Data representative of three independent experiments are shown ±SD. […] K) Colony morphology (phase contrast microscopy, magnification 20×). Representative pictures are shown. […] The number of colonies after PARPi treatment was normalized against the untreated control. Data representative of three independent experiments are shown ±SD. […] M) Colony morphology (phase contrast microscopy, magnification 20×). Representative pictures are shown. […] The number of colonies after PARPi treatment was normalized against the untreated control. Data representative of three independent experiments are shown ±SD. […] O) Colony morphology (phase contrast microscopy, magnification 20×). Representative pictures are shown.
(§2) Briefly, c-kit positive progenitor cells of wild type Ly5.1 mouse bone marrow transduced with a retroviral vector expressing the LATFs of interest were plated into a methylcellulose medium supplemented with appropriate myeloid cytokines. Replating was performed every week to generate primary cell lines for further analysis. […] Veliparib is an inhibitor of PARP1/2 produced by Abbott and widely used in clinical trials.

Series [2] has as its system AML1-ETO transformed cells. Described as above. Format: cell-based, mouse. The method, then:
as §1, §2

The test system of series [3] is PML-RARα transformed cells. The series is described as above. Format: cell-based, mouse. The method, then:
as §1, §2

Series [4] deals with MLL-AF9 transformed cells. Described as above. Format: cell-based, mouse. Particulars: 1 μM, methylcellulose 7 days. The method, then:
as §1, §2

Series [5] deals with ATRA resistant M4-PML-RARα cells. As to the kind of experiment: ATRA resistant mouse model, FVB mice injected with M4-PML-RARα cells. The class given is in vivo. Particulars: Olaparib 50 mg/kg intra-peritoneal daily for two weeks. The method, then:
(§3) A) Kaplan-Meier survival curve relative to NSG mice injected with NB4 human cells. NB4 human cells expressing the oncogene PML-RARα were injected intravenously in NSG mice and distributed in two groups. […] Treatment was performed for two weeks. Mice were monitored daily until the development of symptoms of leukaemia, when bone marrow (B), spleen (C) and liver (D) were harvested, processed, stained with PE-conjugated antibody against human CD33 and analysed by FACS, to quantify the human cell engraftment in these organs. E) Kaplan-Meier survival curve relative to NSG mice injected with Kasumi human cells. Kasumi human cells expressing the oncogene AML1-ETO were injected intra-femur in NSG mice and distributed in two groups. […] Treatment was performed for two weeks. Mice were monitored daily until the development of symptoms of leukaemia, when bone marrow (F), spleen (G) and liver (H) were harvested, processed, stained with PE-conjugated antibody against human CD33 and analysed by FACS, to quantify the human cell engraftment in these organs. […] Mice were monitored daily until the development of symptoms of leukaemia, when bone marrow (K), spleen (L) and liver (M) were harvested, processed, stained with PE-conjugated antibody against mouse Gr1 and analysed by FACS, to quantify the human cell engraftment in these organs. […]

For series [6], the system named is Kasumi human cells expressing the oncogene AML1-ETO. As to the kind of experiment: Survival of NSG mice injected intra-femur with Kasumi human cells. The class given is in vivo. The procedure:
(§4) A) Kaplan-Meier survival curve relative to NSG mice injected with NB4 human cells. NB4 human cells expressing the oncogene PML-RARα were injected intravenously in NSG mice and distributed in two groups. […] Treatment was performed for two weeks. Mice were monitored daily until the development of symptoms of leukaemia, when bone marrow (B), spleen (C) and liver (D) were harvested, processed, stained with PE-conjugated antibody against human CD33 and analysed by FACS, to quantify the human cell engraftment in these organs. E) Kaplan-Meier survival curve relative to NSG mice injected with Kasumi human cells. Kasumi human cells expressing the oncogene AML1-ETO were injected intra-femur in NSG mice and distributed in two groups. […] Treatment was performed for two weeks. Mice were monitored daily until the development of symptoms of leukaemia, when bone marrow (F), spleen (G) and liver (H) were harvested, processed, stained with PE-conjugated antibody against human CD33 and analysed by FACS, to quantify the human cell engraftment in these organs. I) and J Kaplan-Meier survival curves of FVB and C57Bl/6 mice injected with M4-PML-RARα and MLL-AF9 cells, respectively. ATRA resistant M4-PML-RARα cells were injected intravenously in FVB mice and distributed in three groups. […] Mice were monitored daily until the development of symptoms of leukaemia, when bone marrow (K), spleen (L) and liver (M) were harvested, processed, stained with PE-conjugated antibody against mouse Gr1 and analysed by FACS, to quantify the human cell engraftment in these organs. […]
(§5) In order to test the efficacy of this treatment in vivo, we transplanted Kasumi and NB4 cell lines into a small cohort of sublethally irradiated NOD/SCID/IL2Rg−/− (NSG) mice by intra-femoral and intravenous injection, respectively. […] The maximum dose tolerated was calculated by in vivo dose-response experiments. Mice were monitored daily until they developed symptoms of leukaemia, when they were culled and bone marrow, spleen and liver harvested and analyzed by FACS. […]

Series [7] relates to breast, prostate and ovarian cancer patients carrying mutations in BRCA1 or BRCA2 genes. Particulars: phase I and phase II trials; cited from earlier work.
Series [8] relates to bone marrow c-kit+ cells. The series can be described thus: PARPi titration, colony assay in methylcellulose, normal bone marrow cells. Format: cell-based. Particulars: Mus musculus, Bone marrow cell, 168 h; colonies counted after seven days in methylcellulose; nonlinear regression. The method, then: FIG. 1 PARPi titration. A) PARPi titration in normal bone marrow c-kit cells grown in methylcellulose for 7 days. Data representative of three independent experiments are shown ±SD. […] B) Non linear regression dose response curve, obtained by logarithmic transformation of the data presented in the panel A. C) Colony morphology (contrast microscopy magnification 40×). Representative pictures are shown.
Bone marrow cells were treated with escalating doses of Olaparib in methylcellulose. After seven days colonies were counted. The number of colonies obtained in the untreated condition was set as the top value (100%). The bottom value (0) was calculated as the lowest concentration resulting in no colonies. The data where then analyzed in a nonlinear regression dose-response curve (FIG. 1).

For series [9], the system named is untargeted population of ovarian cancer. Particulars: phase II; cited from earlier work.
Series [10] concerns NB4 human cells expressing the oncogene PML-RARα. As to the kind of experiment: Survival of NSG mice injected intravenously with NB4 human cells. Format: in vivo. The procedure: as §4, §5
Series [11] concerns Kasumi. As to the kind of experiment: Colony assay in methylcellulose, human cell line. Particulars: Olaparib 1-5 μM, methylcellulose 7 days. The class given is cell-based. The procedure:
(§6) FIG. 2 AML1-ETO and PML-RARα leukemic cells are sensitive to PARPi. A) Representative scheme of experimental procedures. B) Non linear regression dose response curve. Normal bone marrow c-kit cells and pre-leukaemic cells expressing the oncofusion proteins AML1-ETO, E2A-PBX, MLL-AF9 and PML-RARα were grown in methylcellulose for 7 days with escalating doses of PARPi. Data representative of three independent experiments are shown. C) Percentage of survival of preleukemic cells to PARPi. The number of colonies surviving to seven days incubation with PARPi treatment was normalized against the untreated control. Data representative of six independent experiments are shown ±SD. […] D) Colony morphology (phase contrast microscopy, magnification 40×). Representative pictures are shown. E) Efficiency of PARP1 Knock down (KD) in NIH3T3 cells infected with retroviral vectors expressing shRNA against mouse PARP1. qPCR data showing expression of PARP1 mRNA in NIH3T3 after infection with sh-mPARP1. Data representative of two independent experiments are shown ±SD. Paired two-tailed t test was performed between empty vector and i) scramble, ii) sh-PARP1-A and iii) sh-PARP1-D*p<0.05. F) Efficiency of PARP1 by Western Blot. Western Blot data showing protein level of PARP1 in NIH3T3 after infection with sh-mPARP1. […]

For series [12], the system named is NB4. As to the kind of experiment: Colony assay in methylcellulose, human cell line. Particulars: Olaparib 1-5 μM, methylcellulose 7 days. The class given is cell-based. The procedure: as §6
The subject of series [13] is NB4-LR2. The series can be described thus: Colony assay in methylcellulose, ATRA resistant APL cell model. The class given is cell-based, human. Particulars: Olaparib 5 μM, methylcellulose 7 days. The method, then:
as §6

Series [14] relates to NB4-MR2. The description is as above. The class given is cell-based, human. Particulars: Olaparib 5 μM, methylcellulose 7 days. The method, then: as §6
In series [15] the test system is MLL-AF9 cells. The series can be described thus: C57Bl/6 mice injected with leukaemic MLL-AF9 cells. Format: in vivo. Particulars: Olaparib 50 mg/kg intra-peritoneal daily for two weeks. The method, then: as §3
[16] abbreviates: Olaparib 25 mg/kg daily for two weeks, FACS human CD33.
Setting [17] is: Olaparib 25 mg/kg intra-peritoneal daily for two weeks.

For the compound `C[C@]1(c2nc3c(C(N)=O)cccc3[nH]2)CCCN1` [Veliparib, 2-((R)-2-methylpyrrolidin-2-yl)-1H-benzimidazole-4-carboxamide], the effect on colonies entry in [1] was “no effect”; in series [2] (1 μM, methylcellulose 7 days), “reduced colonies”; in series [3] (1 μM, methylcellulose 7 days) it was “reduced colonies”; in [4], “no effect”.

As a reminder, the IC50 is the concentration that gives 50% inhibition. Low readings indicate greater potency in that assay, high ones weaker potency in that assay. For `O=C(c1cc(Cc2n[nH]c(=O)c3ccccc23)ccc1F)N1CCN(C(=O)C2CC2)CC1` [Olaparib, 4-[(3-[(4-cyclopropylcarbonyl)piperazin-4-yl]carbonyl)-4-fluorophenyl]methyl(2H)-phthalazin-1-one], the “onset of the leukaemia” value in series [5], in series [6] (setting [17]) and in series [10] (setting [17]) was “significantly delayed” throughout. Also, the “engraftment in bone marrow, spleen and liver” value in [6] (setting [16]) and in series [10] (setting [16]) was “variable reduction” throughout. The median survival in series [6] (Olaparib 25 mg/kg intra-peritoneal daily for two weeks, control 50 days, experiment still ongoing) was determined as 115 days; in [10] (Olaparib 25 mg/kg intra-peritoneal daily for two weeks, control 30 days) it was 47 days. In addition, in series [7], the anti-tumour effect entry is reported as “anti-tumour effect”. Also, in series [7], the side effects entry is “grade 1 or 2”. In addition, the IC50 turned out to be 1900 nM in series [8]; 33.4 nM in [2] (Mus musculus, 168 h); 15.8 nM in series [3] (Mus musculus, 168 h). Further, the “overall survival benefit compared to chemotherapy” value in series [9] was “failed to show overall survival benefit”. Also, the “reduction in colony forming ability” value is given as 70-90% in series [2] (Olaparib 1 uM, p<0.05) and 70-90% in series [3] (Olaparib 1 uM, p<0.05). Moreover, in series [2] (replating in semi-solid medium containing Olaparib, p<0.05), the “reduction of number of colonies after additional replating” value is listed as 90%. Also, the “efficacy on colony number” value in series [11] and in [12] was “confirm the efficacy” each time. In addition, the “sensitivity (colony number)” value in series [13] and in [14] was “extremely sensitive” in each case. Also, the “effect on mice developing leukaemia” value in series [15] is listed as “did not have any significant effect”.
